This note sets out measurements from publication PMC9486936 (ACS Chemical Biology, 2022).

The structures appear in SMILES notation.

In this assay the test system is NocG. Put plainly: LC-HRMS, formation of beta-ketoacid […]. The format is biochemical, Nodularia sp. LEGE 06071. To be noted: read-out: apparent Km; variable hexanoyl-SNAC with octanoyl-SNAC as co-substrate.

Broadly, the Km is the substrate concentration at which the rate is half of its maximum. For `CCCCCC(=O)SCCNC(C)=O` [hexanoyl-SNAC], the Km came out at 135 ± 29 µM.
